From patent publication US8653087B2, “Pyrido [5, 4-D] pyrimidines as cell proliferation inhibitors” (Boehringer Ingelheim International GmbH, priority 2008, dated 2014)

target: B-Raf (V600E)-kinase (Homo sapiens (Human), UniProt P15056, V600E); experiment: Kinase test B-RAF (V600E); type: biochemical; conditions: B-RAF (V600E) kinase test, 250 μM ATP
In short: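 B-Raf (V600E) (0.5 ng) preincubated with compound 24 h at RT (5% DMSO), then reacted 60 min at RT with 250 μM ATP and biotinylated MEK1 as substrate. Phospho-MEK (Ser217/221) captured on streptavidin and detected by europium time-resolved fluorescence; IC50 from dose-response curves.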

Chain of B-Raf (V600E)-kinase (P15056 whole entry V600E): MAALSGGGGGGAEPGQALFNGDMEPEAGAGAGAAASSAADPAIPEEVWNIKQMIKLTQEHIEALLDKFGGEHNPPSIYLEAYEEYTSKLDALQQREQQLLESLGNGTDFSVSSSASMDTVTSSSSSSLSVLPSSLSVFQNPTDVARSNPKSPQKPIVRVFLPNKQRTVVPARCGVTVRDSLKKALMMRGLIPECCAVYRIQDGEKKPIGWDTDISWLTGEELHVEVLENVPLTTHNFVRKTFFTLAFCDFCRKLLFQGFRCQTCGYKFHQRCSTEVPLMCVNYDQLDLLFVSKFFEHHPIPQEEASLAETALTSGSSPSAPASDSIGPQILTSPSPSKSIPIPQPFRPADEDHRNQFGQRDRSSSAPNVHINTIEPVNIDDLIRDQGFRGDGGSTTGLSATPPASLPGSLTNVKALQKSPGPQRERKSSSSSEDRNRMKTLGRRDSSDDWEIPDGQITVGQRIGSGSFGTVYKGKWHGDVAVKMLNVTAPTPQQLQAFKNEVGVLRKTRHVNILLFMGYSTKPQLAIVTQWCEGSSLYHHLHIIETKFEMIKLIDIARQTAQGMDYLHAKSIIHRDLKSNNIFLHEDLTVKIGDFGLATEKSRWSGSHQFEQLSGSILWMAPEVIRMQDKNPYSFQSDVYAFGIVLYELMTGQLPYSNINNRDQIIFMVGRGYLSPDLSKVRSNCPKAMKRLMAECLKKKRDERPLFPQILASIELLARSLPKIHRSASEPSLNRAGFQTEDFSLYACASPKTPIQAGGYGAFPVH

IC50 | SMILES
4 nM | CN1CCN(c2ncc3ncnc(Nc4cc(C(=O)Nc5cc(C(C)(C)C)on5)ccc4Cl)c3n2)CC1 [III-72]
< 1 nM | COCCN1CCN(c2ncc3ncnc(Nc4cc(C(=O)Nc5cccc(C(F)(F)F)c5)ccc4C)c3n2)CC1 [III-423]
10000 nM | Cc1ccc(NS(=O)(=O)CC(C)C)cc1Nc1ncnc2cnc(N3CCN(C)CC3)nc12 [IV-57]
10000 nM | Cc1ccc(NS(=O)(=O)CCC(C)C)cc1Nc1ncnc2cnc(N3CCN(C)CC3)nc12 [IV-54]
2 nM | COc1ccc(NC(=O)c2ccc(F)c(Nc3ncnc4cnc(N5CCN(C)CC5)nc34)c2)cc1C(F)(F)F [III-34]
7 nM | Cc1ccc(C(=O)Nc2cccc(S(=O)(=O)N(C)C)c2)cc1Nc1ncnc2cnc(N3CCN(C)CC3)nc12 [III-303]
6 nM | COCCN(C)c1ncc2ncnc(Nc3cc(C(=O)Nc4cc(C(C)(C)C)on4)ccc3OC)c2n1 [III-80]
1 nM | COc1ccc(NC(=O)c2ccc(C)c(Nc3ncnc4cnc(N5CCC(N(C)C)CC5)nc34)c2)cc1C(F)(F)F [III-435]
4 nM | Cc1ccc(C(=O)Nc2cc(N(C)CCN(C)C)cc(C(F)(F)F)c2)cc1Nc1ncnc2c(N)nc(N3CC[C@H](F)C3)nc12 [I-86]
1140 nM | CC(C)(C)c1cc(NC(=O)c2ccc(C(F)(F)F)c(Nc3ncnc4cnc(NCCN5CCOCC5)nc34)c2)no1 [III-66]
3 nM | Cc1ccc(C(=O)Nc2ccc(N(C)CCN(C)C)c(C(F)(F)F)c2)cc1Nc1ncnc2cnc(NCc3ccncc3)nc12 [III-136]
2 nM | Cc1ccc(C(=O)Nc2cc(C(C)(C)C)on2)cc1Nc1ncnc2cnc(N3C[C@H]4C[C@@H]3CN4C)nc12 [III-497]
6 nM | Cc1cn(-c2ncc3ncnc(Nc4cc(C(=O)Nc5cc(C(C)(C)C)n[nH]5)ccc4C)c3n2)cn1 [III-605]
2 nM | Cc1ccc(C(=O)Nc2cc(OCCN(C)C)cc(C(F)(F)F)c2)cc1Nc1ncnc2cnc(N3CCCC3)nc12 [III-150]
11 nM | Cc1ccc(C(=O)Nc2cc(C(C)(C)C)nn2C)cc1Nc1ncnc2c(N)nc(N3CCN(CC(C)C)CC3)nc12 [I-84]
70 nM | CN1CCN(c2nc(N)c3ncnc(Nc4cc(C(=O)Nc5cccc(C(F)(F)F)c5)ccc4Br)c3n2)CC1 [I-26]
12 nM | Cc1ccc(C(=O)Nc2cc(C(C)(C)C)nn2C)cc1Nc1ncnc2c(N)nc(N3CCN(C)CC3)nc12 [I-72]
57 nM | CN1CCN(c2nc(N)c3ncnc(Nc4cccc(C(=O)Nc5cccc(C(F)(F)F)c5)c4)c3n2)CC1 [I-19]
2 nM | CCN1CCN(c2cc(C(=O)Nc3ccc(C)c(Nc4ncnc5cnc(N6CCOCC6)nc45)c3)cc(C(C)(C)C#N)c2)CC1 [IV-67]
13 nM | CN1CCC(CN2CCN(c3nc(N)c4ncnc(Nc5cccc(C(=O)Nc6cccc(C(F)(F)F)c6)c5)c4n3)CC2)CC1 [I-22]
4 nM | Cc1ccc(C(=O)Nc2cc(C(C)(C)C)on2)cc1Nc1ncnc2cnc(N3CCN(CC4CCOC4)CC3)nc12 (centres unmarked) [III-482]
6 nM | Cc1ccc(C(=O)Nc2cc(C(C)(C)C)on2)cc1Nc1ncnc2cnc(N3CCC(N4C[C@@H](C)O[C@@H](C)C4)CC3)nc12 [III-488]
3 nM | CCN1CCN(c2cc(NC(=O)c3ccc(C)c(Nc4ncnc5c(N)nc(N6CCCOCC6)nc45)c3)cc(C(F)(F)F)c2)CC1 [I-81]
9 nM | CCN1CCN(c2ncc3ncnc(Nc4cc(C(=O)Nc5ccc(OC)c(C(F)(F)F)c5)ccc4C)c3n2)CC1 [III-561]
5 nM | Cc1ccc(C(=O)Nc2ccc(C(F)(F)F)cc2)cc1Nc1ncnc2c(N)nc(N3CCN(C)CC3)nc12 [I-5]
< 1 nM | Cc1ccc(C(=O)Nc2cccc(C(F)(F)F)c2)cc1Nc1ncnc2c(N)nc(N3CCNCC3)nc12 [I-66]

IC50 | SMILES
2 nM | Cc1ccc(C(=O)Nc2cc(C(C)(C)C)on2)cc1Nc1ncnc2cnc(N3CCN(C)CC3)nc12 [III-504]
83 nM | CN1CCCN(c2nc(N)c3ncnc(Nc4cc(C(=O)Nc5cccc(C(F)(F)F)c5)ccc4Br)c3n2)CC1 [I-27]
2 nM | Cc1ccc(C(=O)Nc2cc(C(C)(C)C)on2)cc1Nc1ncnc2cnc(N3CCCOCC3)nc12 [III-369]
1 nM | CN(C)CCN(C)c1ncc2ncnc(Nc3cc(C(=O)Nc4cc(C(C)(C)C)on4)ccc3Cl)c2n1 [III-79]
381 nM | COc1ccc(NC(=O)c2ccc(C(F)(F)F)c(Nc3ncnc4cnc(N5CCCC5)nc34)c2)cc1C(F)(F)F [III-51]
< 1 nM | COc1ncc2ncnc(Nc3cc(C(=O)Nc4cccc(C(C)(C)C)c4)ccc3C)c2n1 [III-570]
2 nM | CCN1CCN(c2cc(NC(=O)c3ccc(C)c(Nc4ncnc5c(N)nc(N6CCOCC6)nc45)c3)cc(C(F)(F)F)c2)CC1 [I-77]
32 nM | Cc1ccc(C(=O)Nc2cc(C(C)(C)C)on2)cc1N(C)c1ncnc2cnc(N3CC[C@H](F)C3)nc12 [III-583]
4 nM | COc1ccc(NC(=O)c2ccc(Cl)c(Nc3ncnc4cnc(NCCCN5CCOCC5)nc34)c2)cc1C(F)(F)F [III-11]
2 nM | COc1ccc(C(=O)Nc2cc(C(C)(C)C)on2)cc1Nc1ncnc2cnc(N3CCN(C)CC3)nc12 [III-95]
1 nM | CN1CCC(CN2CCN(c3ncc4ncnc(Nc5cc(C(=O)Nc6cc(C(C)(C)C)on6)ccc5F)c4n3)CC2)CC1 [III-394]
2 nM | COc1ccc(NC(=O)c2ccc(F)c(Nc3ncnc4cnc(NCCN5CCOCC5)nc34)c2)cc1C(F)(F)F [III-40]
56 nM | Cc1ccc(C(=O)NCc2cccc(C(C)(C)C)c2)cc1Nc1ncnc2cnc(N3CCOCC3)nc12 [III-327]
2 nM | Cc1ccc(C(=O)Nc2cc(CN3CCCC3)cc(C(F)(F)F)c2)cc1Nc1ncnc2cnc(NCC(C)C)nc12 [III-112]
< 1 nM | Cc1ccc(C(=O)Nc2cccc(C(F)(F)F)c2)cc1Nc1ncnc2c(N)nc(N3CCN(C4CCN(C)CC4)CC3)nc12 [I-56]
3 nM | Cc1ccc(C(=O)Nc2cc(C(C)(C)C)on2)cc1Nc1ncnc2c(N)nc(N3CCN(C)CC3)nc12 [I-9]
1 nM | Cc1ccc(C(=O)Nc2cc(CN3CCCC3)cc(C(F)(F)F)c2)cc1Nc1ncnc2cnc(NCCF)nc12 [III-101]
3 nM | Cc1ccc(NC(=O)c2cc(N3CCN(C)CC3)cc(C(C)(C)C#N)c2)cc1Nc1ncnc2cnc(N3CCOCC3)nc12 [IV-68]
45 nM | Cc1ccc(NC(=O)c2cccc(C(F)(F)F)c2)cc1Nc1ncnc2c(N)nc(N3CCCN(c4ncccn4)CC3)nc12 [II-16]
59 nM | COc1ncc2ncnc(Nc3cc(NC(=O)c4ccc(Cl)c(C(F)(F)F)c4)ccc3C)c2n1 [IV-50]
2 nM | Cc1ccc(C(=O)Nc2cc(CN3CCCC3)cc(C(F)(F)F)c2)cc1Nc1ncnc2cnc(N3CCCCC3)nc12 [III-106]
2 nM | COc1ccc(C(C)(C)C)cc1NC(=O)c1ccc(C)c(Nc2ncnc3cnc(N4CCCN(C)CC4)nc23)c1 [III-225]
8 nM | Cc1cc(C(=O)Nc2cc(C(C)(C)C)nn2C)cc(Nc2ncnc3cnc(N4CCN(C)CC4)nc23)c1C [III-373]
> 15000 nM | Cc1ccc(C(=O)NC2CC2)cc1Nc1ncnc2cnc(N3CCCN(C)CC3)nc12 [III-185]
1 nM | CCN1CCN(c2ncc3ncnc(Nc4cc(NC(=O)c5cccc(C(C)(C)C#N)c5)ccc4C)c3n2)CC1 [IV-27]
1 nM | Cc1ccc(C(=O)Nc2cccc(C(C)(C)C)c2)cc1Nc1ncnc2cnc(N3CCN(C)CC3)nc12 [III-229]

SMILES | IC50
Cc1ccc(C(=O)Nc2ccc(C#N)c(C(F)(F)F)c2)cc1Nc1ncnc2cnc(N(C)CCN(C)C)nc12 [III-281] | 5 nM
